Laboratory results taken from patent US12036218B2, “Modulators of airway basal cells for the treatment or prevention of lung diseases” (Fraunhofer Gesellschaft zur Förderung der angewandten …, priority 2020, dated 2024).

How the values were obtained:
[1] = test system: IPF-ABC; assay: Human 3D bronchosphere assay, IPF-ABC single culture: bronchosphere formation; assay type: cell-based; conditions: IPF-ABC cultured in 3D, 21 days
Method: (§1) FIG. 5: SRC-inhibitor saracatinib abrogates bronchosphere formation. (A-E) Bronchosphere assays of human IPF-ABCs were performed w/wo IPF lung fibroblasts for 21 days. Cell cultures (n=12, in triplicates) were treated with either vehicle, saracatinib (600, 210, 75, 25, 8 nM), pirfenidone (1 mM) or nintedanib (1 μM). […] (G, H) In the same model we used GFP^+ fibroblasts to study fibroblast proliferation. […] For statistical comparison repeated measures ANOVA with Tukey correction for multiple testing was used.
(§2) Based on the Connectivity MAP predictions, the inventors tested whether saracatinib, a known SRC inhibitor previously tested in human cancer is able to modulate IPF-ABC phenotype. […] The results were similar in cells obtained from 12 different individuals with IPF (P<0.0001, FIG. 5B). […] Similar data were obtained by testing cell proliferation in the MTT assay (P<0.0001, FIG. 5C).
(§3) ABCs, either derived from IPF patients or HV, were cultured in matrigel (Corning) in a transwell system with or without lung fibroblasts either derived from patients with IPF or normal lung for 21 days (if not otherwise indicated) in the incubator (5% CO2, 37° C.). Medium exchange (BEGM (Lonza, Basel, Switzerland, #CC-3170)/DMEM (Dulbecco's Modified Eagle Medium (Gibco, Swit Fisher Scientific/Germany); ratio 1:1) was done every 7 days. In some experiments lentiviral transduced GFP expressing fibroblasts were used. Conditioned medium of the 3D organoid culture (day 7 and day 14) was used for ELISA and fibroblast stimulation experiments. Sircol assay (Scientific-Biocolor/UK, #S1000) was performed as recommended by the manufacturer on matrigel and conditioned medium harvested after 6 weeks of cell culture. Bronchosphere formation was documented by Axio Vert.A1/Zeiss/Germany and Axio Observer Z1/Zeiss/Germany. For histology, immunohistology and confocal laser microscopy 3D cell cultures were cryopreserved using Tissue-Tek and cryomolds (Hartenstein/Germany; #CMM). Detailed information is given in the supplement.

[2] = test system: IPF-ABC; assay: MTT cell proliferation assay in IPF-ABC 3D culture; assay type: cell-based, human; conditions: IPF-ABCs without fibroblasts, 21 days; saracatinib 600-8 nM, pirfenidone 1 mM, nintedanib 1 μM
Method: as §1, §2, §3

[3] = test system: IPF-ABC with lung fibroblasts; assay: 3D co-culture model of IPF-ABC with lung fibroblasts: bronchosphere formation; assay type: cell-based, human
Method: as §1, §2, §3

[4] = test system: IPF-ABC with IPF lung fibroblasts; assay: MTT cell proliferation assay in IPF-ABC / IPF lung fibroblast co-culture; assay type: cell-based, human; conditions: in the presence of IPF lung fibroblasts, 21 days; saracatinib 600-8 nM, pirfenidone 1 mM, nintedanib 1 μM
Method: as §1, §3

[5] = test system: ABCs; assay: Cellular vitality of ABCs; assay type: cell-based, human; conditions: all used concentrations (600, 210, 75, 25, 8 nM)
Description: as §2

[6] = test system: lung fibroblasts; assay: Fibroblast proliferation (GFP+ fibroblasts) in IPF-ABC co-culture; assay type: cell-based, human; conditions: GFP+ fibroblasts co-cultured with IPF-ABC
Method: as §1, §2
ABCs, either derived from IPF patients or HV, were cultured in matrigel (Corning) in a transwell system with or without lung fibroblasts either derived from patients with IPF or normal lung for 21 days (if not otherwise indicated) in the incubator (5% CO2, 37° C.). […]

[7] = test system: NRG mice; assay: Humanized pulmonary fibrosis model: bleomycin plus intratracheal human IPF-ABCs in NRG mice; assay type: in vivo
Method: FIG. 6: SRC-inhibitor saracatinib attenuates fibrosis in the humanized mouse model. NRG mice were intratracheally injected with a low dose of bleomycin and 3 days later with human ABCs derived from IPF patients. Mice (n=11 each group, 4 replicates (all data shown)) were treated oropharyngeally with or without saracatinib in a dose of 10 mg/kg once daily starting at day 4 (A-C) or at day 8 (D-F). […] All P values were determined by a paired comparison (t-test) testing the effect of saracatinib treatment for each human IPF cell line.
To test the effect of saracatinib on IPF-ABC induced fibrosis and remodeling in-vivo, the inventors returned to the minimal injury xenotransplant model in NRG mice. Overall, the inventors used IPF-ABCs from 38 different individuals with IPF in these experiments. Per IPF subject, IPF-ABCs were used in two animals, one treated with saracatinib and one with vehicle control, to account for interindividual variability. To test the effect of saracatinib on engraftment and development of fibrosis we started treatment at day 4 post injury, one day post IPF-ABC installation for a total of 18 days (FIG. 6A). […] To test the effect of saracatinib on established fibrosis the inventors performed another set of experiments in which treatment was delayed to day 8 when cell engraftment and fibrosis were already established.
Different mice strains were used for the experiments as indicated. B6;129Sv-Rag2tm1Fwa/ZTM (75) (Rag2−/−) and NOD.Cg-Rag1tm1Mom Il2rgtm1Wjl/SzJZtm (76) (NRG) were obtained from the central animal facility (Hannover Medical School, Hannover). NOD.Cg-Prkdcscid Il2rgtm1Wjl Tg(CAGGS-VENUS)1/Ztm (Venus-NSG) mice were kindly provided by Dr. Wiebke Garrels (Hannover Medical School). Mice received bleomycin dissolved in sterile saline at the dose of 1.2 mg/kg intratracheally on day 0. IPF-ABCs, HV-ABCs (Rag 2−/−: 0.3×105, NRG and NSG: 0.2×105) were injected intratracheally on day 3. In some experiments human IPF-ABCs transduced with a lentiviral vector encoding for GFP and luciferase were injected. Pairs of mice received the same IPF-ABC line and were later treated either with vehicle or saractinib (kindly provided by Leslie Cousens AstraZeneca) in a dose of 10 mg/kg, i.g. once daily. For histological and immunohistological analysis, the trachea was cannulated and lungs were insufflated with 4% paraformaldehyde in PBS at a pressure of 25 cm H2O, followed by removal of the heart and inflated lungs en bloc and immersion in 4% paraformaldehyde overnight at 4° C., and the tissues were processed to paraffin wax or were cryopreserved using Tissue Tek® O.C.T.™ compound. […] Collagen content was determined by quantifying hydroxyproline levels according to manufacturer's description. […]

[8] = pirfenidone 1 mM, nintedanib 1 μM
[9] = 10 mg/kg once daily oropharyngeal, treatment from day 4, read at day 21
[10] = 10 mg/kg once daily, treatment delayed to day 8 (day 8 to day 21), established fibrosis

## COC(=O)c1ccc2c(c1)NC(=O)/C2=C(\Nc1ccc(N(C)C(=O)CN2CCN(C)CC2)cc1)c1ccccc1 [nintedanib]
[1]; [8]
  bronchosphere formation: no visible effect
[2]
  cell proliferation as measured by MTI assay: slightly
[3]; [8]
  bronchosphere formation: significantly reduced bronchosphere formation, but not completely
[4]
  cell proliferation as measured by the MTT assay: less reduced

## CN1CCN(CCOc2cc(OC3CCOCC3)c3c(Nc4c(Cl)ccc5c4OCO5)ncnc3c2)CC1 [saracatinib, N-(5-chloro-1,3-benzodioxol-4-yl)-7-[2-(4-methyl-1-piperazinyl)ethoxy]-5-[(tetrahydro-2H-pyran-4-yl]oxy)-4-quinazolinamine]
[1]; saracatinib 600 nM, 210 nM, and 75 nM
  bronchosphere formation: complete abrogation
[2]
  cell proliferation as measured by MTI assay: significantly reduced
[5]
  cellular vitality of ABCs: did not affect
[3]; saracatinib 8 nM
  bronchosphere formation: did not have an effect
[3]; saracatinib 25 nM
  bronchosphere formation: lower effect
[3]; saracatinib 600 nM, 210 nM and 75 nM
  bronchosphere formation: completely blocked
[4]
  cell proliferation as measured by the MTT assay: significantly reduced
[6]
  fibroblast proliferation in the co-culture: substantially lower
[7]; [9]
  Ashcroft score: 1.4±0.7
  hydroxyproline/total-protein levels: 0.7±0.6
[7]; [10]
  Ashcroft score: significant reductions
  hydroxyproline content: significant reductions

## Cc1ccc(=O)n(-c2ccccc2)c1 [pirfenidone]
[1]; [8]
  bronchosphere formation: no visible effect
[2]
  cell proliferation as measured by MTI assay: slightly
[3]; [8]
  bronchosphere formation: significantly reduced bronchosphere formation, but not completely
[4]
  cell proliferation as measured by the MTT assay: less reduced
